Experimental data as given in article PMC6637425 (ChemMedChem, 2019).
Read-outs that look alike come from different tables or passages of the source.

Columns and labels:
BACE1 enzyme = BACE1 enzyme (Homo sapiens, UniProt P56817); experiment: BACE1 enzyme inhibition, Ki from kinetic data under tight-binding conditions; format: biochemical
BACE2 enzyme = molecular target: T1, BACE2 enzyme (Homo sapiens, UniProt Q9Y5Z0); experiment: BACE2 enzyme inhibition, Ki from kinetic data under tight-binding conditions; format: biochemical; settings: for selectivity for BACE2 over BACE1: ratio of Ki values
T1 sequence (Q9Y5Z0 63-518): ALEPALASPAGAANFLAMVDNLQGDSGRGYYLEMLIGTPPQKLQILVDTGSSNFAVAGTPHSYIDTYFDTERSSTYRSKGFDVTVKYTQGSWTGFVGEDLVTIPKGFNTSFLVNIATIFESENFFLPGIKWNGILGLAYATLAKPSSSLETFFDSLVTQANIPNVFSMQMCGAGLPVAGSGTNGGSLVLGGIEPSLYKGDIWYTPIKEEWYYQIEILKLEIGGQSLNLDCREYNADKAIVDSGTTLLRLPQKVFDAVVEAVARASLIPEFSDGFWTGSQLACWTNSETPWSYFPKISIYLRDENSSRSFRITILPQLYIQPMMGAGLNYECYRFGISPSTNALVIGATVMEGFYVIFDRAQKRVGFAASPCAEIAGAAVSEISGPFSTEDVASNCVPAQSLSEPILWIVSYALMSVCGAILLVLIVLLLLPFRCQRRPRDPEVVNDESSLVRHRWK

[1] = read-out: Ki (nM) BACE1, Table 3
[2] = read-out: Ki (nM) BACE2, Table 3
[3] = Ki (nM) BACE1, Table 1, new inhibitors 2f-j
[4] = Ki (nM) BACE2, Table 1, new inhibitors 2f-j
[5] = read-out: Ki (nM) BACE1, Table 2
[6] = read-out: Ki (nM) BACE2, Table 2

Chain of BACE1 enzyme (P56817 46-501): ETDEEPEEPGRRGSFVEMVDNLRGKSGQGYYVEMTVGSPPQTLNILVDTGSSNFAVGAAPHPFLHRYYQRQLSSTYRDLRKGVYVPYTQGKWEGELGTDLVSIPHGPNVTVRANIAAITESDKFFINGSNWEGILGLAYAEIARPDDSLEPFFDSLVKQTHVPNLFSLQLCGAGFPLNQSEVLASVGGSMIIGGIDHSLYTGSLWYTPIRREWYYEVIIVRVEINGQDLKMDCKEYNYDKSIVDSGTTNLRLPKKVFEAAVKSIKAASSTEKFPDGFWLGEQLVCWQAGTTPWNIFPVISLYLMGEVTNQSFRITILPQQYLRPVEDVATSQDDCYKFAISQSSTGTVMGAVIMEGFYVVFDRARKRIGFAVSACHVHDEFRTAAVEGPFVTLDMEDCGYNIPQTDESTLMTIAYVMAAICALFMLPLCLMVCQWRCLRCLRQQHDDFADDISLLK

COc1cccc(CNC[C@@H](O)[C@H](Cc2ccccc2)NC(=O)c2cc(C)cc(C(=O)N(C)C(C)c3nc(C)co3)c2)c1 (mixture of isomers) [inhibitor 3o, N^1-((2S,3R)-3-Hydroxy-4-((3-methoxybenzyl)ammo)-1-phenylbutan-2-yl)-N^3,5-dimethyl-N^3-(1-(4-methyloxazol-2-yl)ethyl)isophthalamide]
Ki (BACE1 enzyme; [1]): 767 nM | selectivity for BACE2 over BACE1 (BACE2 enzyme): no appreciable selectivity | Ki (BACE2 enzyme; [2]): 801 nM

COC[C@H]1CCCN1C(=O)c1cccc(C(=O)N[C@@H](Cc2ccccc2)[C@H](O)CN[C@H](C(=O)NCC(C)C)[C@H](C)O)c1 [inhibitor 2f, N-((2S,3R)-3-Hydroxy-4-(((2S,3S)-3-hydroxy-1-(isobutylamino)-1-oxobutan-2-yl)amino)-1-phenylbutan-2-yl)-3-((R)-2-(methoxymethyl)pyrrolidine-1-carbonyl)benzamide]
Ki (BACE1 enzyme; [3]): 3020 nM | Ki (BACE2 enzyme; [4]): 1370 nM

CCC[C@H](O)[C@H](NC[C@@H](O)[C@H](Cc1ccccc1)NC(=O)c1cc(C)cc(C(=O)N2CCC[C@@H]2COC)c1)C(=O)NCC(C)C [inhibitor 2g, N-((2S,3R)-3-Hydroxy-4-(((2S,3S)-3-hydroxy-1-(isobutylamino)-1-oxohexan-2-yl)amino)-1-phenylbutan-2-yl)-3-((R)-2-(methoxymethyl)pyrrolidine-1-carbonyl)-5-methylbenzamide]
Ki (BACE1 enzyme; [3]): 6.6 nM | Ki (BACE2 enzyme; [4]): 27.9 nM

Cc1cc(C(=O)N[C@@H](Cc2ccccc2)[C@H](O)CN[C@H](C(=O)NCC(C)C)[C@H](C)O)cc(C(=O)N(C)Cc2nc(C)cs2)c1 [inhibitor 2h, N^1-((2S,3R)-3-Hydroxy-4-(((2S,3S)-3-hydroxy-1-(isobutylamino)-1-oxobutan-2-yl)amino)-1-phenylbutan-2-yl)-N^3,5-dimethyl-N^3-((4-methylthiazol-2-yl)methyl)isophthalamide]
Ki (BACE1 enzyme; [3]): 176 nM | Ki (BACE2 enzyme; [4]): 96.9 nM | selectivity for BACE2 over BACE1 (BACE2 enzyme): 2 fold

CCC[C@H](O)[C@H](NC[C@@H](O)[C@H](Cc1ccccc1)NC(=O)c1cccc(C(=O)N(C)Cc2nc(C)cs2)c1)C(=O)NCC(C)C [inhibitor 2i, N^1-((2S,3R)-3-Hydroxy-4-(((2S,3S)-3-hydroxy-1-(isobutylamino)-1-oxohexan-2-yl)amino)-1-phenylbutan-2-yl)-N^3-methyl-N^3-((4-methylthiazol-2-yl)methyl)isophthalamide]
Ki (BACE1 enzyme; [3]): 33.1 nM | Ki (BACE2 enzyme; [4]): 51.1 nM

CCC[C@H](O)[C@H](NC[C@@H](O)[C@H](Cc1ccccc1)NC(=O)c1cc(C)cc(C(=O)N(C)Cc2nc(C)cs2)c1)C(=O)NCC(C)C [inhibitor 2j, N^1-((2S,3R)-3-Hydroxy-4-(((2S,3S)-3-hydroxy-1-(isobutylamino)-1-oxohexan-2-yl)amino)-1-phenylbutan-2-yl)-N^3,5-dimethyl-N^3-((4-methylthiazol-2-yl)methyl)isophthalamide]
Ki (BACE1 enzyme; [3]): 34.2 nM | Ki (BACE2 enzyme; [4]): 25.3 nM

COc1cccc([C@@H](NC[C@@H](O)[C@H](Cc2ccccc2)NC(=O)c2cc(C(=O)N[C@H](C)c3ccccc3)cc(N(C)S(C)(=O)=O)c2)[C@H](C)O)c1 [inhibitor 3a, N^1-((2S,3R)-3-Hydroxy-4-(((1R,2S)-2-hydroxy-1-(3-methoxyphenyl)propyl)ammo)-1-phenylbutan-2-yl)-5-(N-methylmethylsulfonamido)-N^3-((R)-1-phenylethyl)isophthalamide]
Ki (BACE1 enzyme; read-out: BACE1 Ki): 205 nM | Ki (BACE1 enzyme; [5]): 205 nM | Ki (BACE2 enzyme; read-out: BACE2 Ki): 731 nM | Ki (BACE2 enzyme; [6]): 731 nM

COc1cccc([C@@H](NC[C@@H](O)[C@H](Cc2ccccc2)NC(=O)c2cc(C(=O)N(C)[C@H](C)c3ccccc3)cc(N(C)S(C)(=O)=O)c2)[C@H](C)O)c1 [inhibitor 3b, N^1-((2S,3R)-3-Hydroxy-4-(((1R,2S)-2-hydroxy-1-(3-methoxyphenyl)propyl)ammo)-1-phenylbutan-2-yl)-N^3-methyl-5-(N-methylmethylsulfonamido)-N^3-((R)-1-phenylethyl)isophthalamide]
Ki (BACE1 enzyme; [5]): 4850 nM | Ki (BACE2 enzyme; [6]): 479 nM

COc1cccc([C@@H](NC[C@@H](O)[C@H](Cc2ccccc2)NC(=O)c2cccc(C(=O)N(C)[C@H](C)c3ccccc3)c2)[C@H](C)O)c1 [inhibitor 3c, N^1-((2S,3R)-3-Hydroxy-4-(((1R,2S)-2-hydroxy-1-(3-methoxyphenyl)propyl)ammo)-1-phenylbutan-2-yl)-N^3-methyl-N^3-((R)-1-phenylethyl)isophthalamide]
Ki (BACE1 enzyme; [5]): 51300 nM | selectivity for BACE2 over BACE1 (BACE2 enzyme): 54 fold | Ki (BACE2 enzyme; [6]): 950 nM

COc1cccc([C@@H](NC[C@@H](O)[C@H](Cc2ccccc2)NC(=O)c2cc(C)cc(C(=O)N(C)[C@H](C)c3ccccc3)c2)[C@H](C)O)c1 [inhibitor 3d, N^1-((2S,3R)-3-Hydroxy-4-(((1R,2S)-2-hydroxy-1-(3-methoxyphenyl)propyl)amino)-1-phenylbutan-2-yl)-N^3,5-dimethyl-N^3-((R)-1-phenylethyl)isophthalamide]
Ki (BACE1 enzyme; Ki (nM) BACE1, Table 2): 16200 nM | Ki (BACE2 enzyme; Ki (nM) BACE2, Table 2): 480 nM | selectivity for BACE2 over BACE1 (BACE2 enzyme): 34 fold

CCC[C@H](O)[C@H](NC[C@@H](O)[C@H](Cc1ccccc1)NC(=O)c1cccc(C(=O)N(C)[C@H](C)c2ccccc2)c1)c1cccc(OC)c1 [inhibitor 3e, N^1-((2S,3R)-3-Hydroxy-4-(((1R,2S)-2-hydroxy-1-(3-methoxyphenyl)pentyl)amino)-1-phenylbutan-2-yl)-N^3-methyl-N^3-((R)-1-phenylethyl)isophthalamide]
Ki (BACE1 enzyme; Ki (nM) BACE1, Table 2): 38600 nM | Ki (BACE2 enzyme; Ki (nM) BACE2, Table 2): 243 nM | selectivity for BACE2 over BACE1 (BACE2 enzyme): 159 fold

CCC[C@H](O)[C@H](NC[C@@H](O)[C@H](Cc1ccccc1)NC(=O)c1cc(C)cc(C(=O)N(C)[C@H](C)c2ccccc2)c1)c1cccc(OC)c1 [inhibitor 3f, N^1-((2S,3R)-3-Hydroxy-4-(((1R,2S)-2-hydroxy-1-(3-methoxyphenyl)pentyl)ammo)-1-phenylbutan-2-yl)-N^3,5-dimethyl-N^3-((R)-1-phenylethyl)isophthalamide]
Ki (BACE1 enzyme; [5]): 8800 nM | selectivity for BACE2 over BACE1 (BACE2 enzyme): 62 fold | Ki (BACE2 enzyme; [6]): 141 nM

CCC[C@H](O)[C@H](NC[C@@H](O)[C@H](Cc1ccccc1)NC(=O)c1cccc(C(=O)N(C)[C@H](C)c2ccccc2)c1)c1ccccc1 [inhibitor 3g, N^1-((2S,3R)-3-Hydroxy-4-(((1R,2S)-2-hydroxy-1-phenylpentyl)ammo)-1-phenylbutan-2-yl)-N^3-methyl-N^3-((R)-1-phenylethyl)isophthalamide]
Ki (BACE1 enzyme; [5]): 42500 nM | Ki (BACE2 enzyme; [6]): 2550 nM

CCC[C@H](O)[C@H](NC[C@@H](O)[C@H](Cc1ccccc1)NC(=O)c1cc(C)cc(C(=O)N(C)[C@H](C)c2ccccc2)c1)c1ccccc1 [inhibitor 3h, N^1-((2S,3R)-3-Hydroxy-4-(((1R,2S)-2-hydroxy-1-phenylpentyl)amino)-1-phenylbutan-2-yl)-N3,5-dimethyl-N^3-((R)-1-phenylethyl)isophthalamide]
Ki (BACE1 enzyme; Ki (nM) BACE1, Table 2): 18100 nM | Ki (BACE2 enzyme; Ki (nM) BACE2, Table 2): 905 nM

COc1cccc(CNC[C@@H](O)[C@H](Cc2ccccc2)NC(=O)c2cccc(C(=O)N(C)[C@H](C)c3ccccc3)c2)c1 [inhibitor 3i, N^1-((2S,3R)-3-Hydroxy-4-((3-methoxybenzyl)ammo)-1-phenylbutan-2-yl)-N^3-methyl-N^3-((R)-1-phenylethyl)isophthalamide]
Ki (BACE1 enzyme; [1]): 2080 nM | Ki (BACE2 enzyme; read-out: BACE2 Ki): 39.4 nM | Ki (BACE2 enzyme; [2]): 39.5 nM

COc1cccc(CNC[C@@H](O)[C@H](Cc2ccccc2)NC(=O)c2cc(C)cc(C(=O)N(C)[C@H](C)c3ccccc3)c2)c1 [inhibitor 3j, N^1-((2S,3R)-3-Hydroxy-4-((3-methoxybenzyl)ammo)-1-phenylbutan-2-yl)-N3,5-dimethyl-N^3-((R)-1-phenylethyl)isophthalamide]
Ki (BACE1 enzyme; [1]): 837 nM | selectivity for BACE2 over BACE1 (BACE2 enzyme): ~60 fold | Ki (BACE2 enzyme; [2]): 14 nM

C[C@H](c1ccccc1)N(C)C(=O)c1cccc(C(=O)N[C@@H](Cc2ccccc2)[C@H](O)CNCc2cccc(C(F)(F)F)c2)c1 [inhibitor 3k, N^1-((2S,3R)-3-Hydroxy-1-phenyl-4-((3-(trifluoromethyl)benzyl)amino)butan-2-yl)-N^3-methyl-N^3-((R)-1-phenylethyl)isophthalamide]
Ki (BACE1 enzyme; Ki (nM) BACE1, Table 3): 1350 nM | Ki (BACE2 enzyme; BACE2 Ki): 35.7 nM | Ki (BACE2 enzyme; Ki (nM) BACE2, Table 3): 35.7 nM | selectivity for BACE2 over BACE1 (BACE2 enzyme): 37 fold

Cc1cc(C(=O)N[C@@H](Cc2ccccc2)[C@H](O)CNCc2cccc(C(F)(F)F)c2)cc(C(=O)N(C)[C@H](C)c2ccccc2)c1 [inhibitor 3l, N^1-((2S,3R)-3-Hydroxy-1-phenyl-4-((3-(trifluoromethyl)benzyl)ammo)butan-2-yl)-N^3,5-dimethyl-N^3-((R)-1-phenylethyl)isophthalamide]
Ki (BACE1 enzyme; [1]): 815 nM | selectivity for BACE2 over BACE1 (BACE2 enzyme): over 500 fold | Ki (BACE2 enzyme; [2]): 1.6 nM

COc1cccc(CNC[C@@H](O)[C@H](Cc2ccccc2)NC(=O)c2cccc(C(=O)N(C)Cc3nc(C)co3)c2)c1 [inhibitor 3m, N^1-((2S,3R)-3-Hydroxy-4-((3-methoxybenzyl)amino)-1-phenylbutan-2-yl)-N^3-methyl-N^3-((4-methyloxazol-2-yl)methyl)isophthalamide]
Ki (BACE1 enzyme; Ki (nM) BACE1, Table 3): 68.8 nM | selectivity for BACE1 against BACE2 (BACE1 enzyme; ratio of Ki values): over 100 fold | Ki (BACE2 enzyme; Ki (nM) BACE2, Table 3): 7330 nM
